Source: the supplement of paper PMC10307832

Assays:
Experiment in all cases: relative viability (nuclei count vs DMSO), 5 days (fraction); higher = more cells survive
FG-4592 + Dasatinib = compound: Cc1nc(C(=O)NCC(=O)O)c(O)c2ccc(Oc3ccccc3)cc12 [FG-4592] + Cc1nc(Nc2ncc(C(=O)Nc3c(C)cccc3Cl)s2)cc(N2CCN(CCO)CC2)n1 [Dasatinib] (partner 0.075 µM)
Summary of the method: (§1)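 Lung cancer cell lines in 1536-well plates got either a single drug or a fixed anchor-drug dose together with five library-drug doses (not always all listed) in √10 steps, by pin tool, on the day after seeding. Nuclei were counted after 5 days, and relative viability is the treated-to-vehicle ratio of nuclei counts. Values are medians of duplicate plates.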

IU1-47 + Decitabine = compound: CC1=CC(=C(N1C2=CC=C(C=C2)Cl)C)C(=O)CN3CCCCC3 [IU1-47] + Nc1ncn([C@H]2C[C@H](O)[C@@H](CO)O2)c(=O)n1 [Decitabine] (partner 2 µM)
Summary of the method: as §1

FG-4592 + Luminespib = compound: Cc1nc(C(=O)NCC(=O)O)c(O)c2ccc(Oc3ccccc3)cc12 [FG-4592] + CCNC(=O)c1noc(-c2cc(C(C)C)c(O)cc2O)c1-c1ccc(CN2CCOCC2)cc1 [Luminespib] (partner 0.01 µM)
Summary of the method: as §1

IU1-47 + Bortezomib = compound: CC1=CC(=C(N1C2=CC=C(C=C2)Cl)C)C(=O)CN3CCCCC3 [IU1-47] + CC(C)C[C@H](NC(=O)[C@H](Cc1ccccc1)NC(=O)c1cnccn1)B(O)O [Bortezomib] (partner 0.002 µM)
Summary of the method: as §1

Cell Line	relative viability (FG-4592 + Dasatinib; first compound 0.08 µM)	relative viability (FG-4592 + Dasatinib; first compound 0.253 µM)	relative viability (FG-4592 + Dasatinib; first compound 0.8 µM)	relative viability (FG-4592 + Dasatinib; first compound 2.53 µM)	relative viability (FG-4592 + Dasatinib; first compound 8 µM)	relative viability (IU1-47 + Decitabine; first compound 0.08 µM)	relative viability (IU1-47 + Decitabine; first compound 0.253 µM)	relative viability (IU1-47 + Decitabine; first compound 0.8 µM)	relative viability (IU1-47 + Decitabine; first compound 2.53 µM)	relative viability (IU1-47 + Decitabine; first compound 8 µM)	relative viability (FG-4592 + Luminespib; first compound 0.08 µM)	relative viability (FG-4592 + Luminespib; first compound 0.253 µM)	relative viability (FG-4592 + Luminespib; first compound 0.8 µM)	relative viability (FG-4592 + Luminespib; first compound 2.53 µM)	relative viability (FG-4592 + Luminespib; first compound 8 µM)	relative viability (IU1-47 + Bortezomib; first compound 0.08 µM)	relative viability (IU1-47 + Bortezomib; first compound 0.253 µM)	relative viability (IU1-47 + Bortezomib; first compound 0.8 µM)	relative viability (IU1-47 + Bortezomib; first compound 2.53 µM)	relative viability (IU1-47 + Bortezomib; first compound 8 µM)
NCI-H322M	0.248	0.249	0.219	0.245	0.224	0.776	0.807	0.645	0.683	0.652	0.82	0.841	0.666	0.818	0.623	1.22	1.2	1.12	1.17	1.29
NCI-H441	0.56	0.547	0.524	0.55	0.555	0.254	0.257	0.212	0.254	0.234	0.314	0.307	0.307	0.443	0.287	0.732	0.574	0.489	0.561	0.56
NCI-H460	0.527	0.511	0.43	0.457	0.368	0.536	0.494	0.563	0.51	0.579	0.0351	0.0212	0.0354	0.0343	0.0187	1.14	1.25	1.14	1.2	0.469
NCI-H520	0.171	0.206	0.133	0.157	0.157	0.484	0.507	0.469	0.513	0.416	0.22	0.209		0.204	0.201	0.679	0.687	0.821	0.576	0.408
NCI-H596	0.573	0.736	0.418	0.537	0.562	1.05		1.03	1.09	0.977	1.14	1.08	0.886	1.15	0.676	1.03	0.929	1.11	1.07	0.995
NCI-H647	0.186	0.202	0.145	0.172	0.183	0.454	0.487	0.462	0.39	0.4	0.183	0.181	0.174	0.201	0.109	0.97	0.904	1.08	0.859	0.862
NCI-H650	0.464	0.491	0.393	0.407	0.392	0.369	0.333	0.27	0.334	0.291	0.766	0.797	0.597	0.746	0.713	0.908	0.811	0.952	0.742	0.681
NCI-H661	0.983	0.825	0.874	0.827	0.835	0.531	0.575	0.596	0.556	0.503	0.94	0.888	0.961	0.863	0.951	0.962	0.944	0.896	0.564	0.732
